# Activity calls are given as the source filed them.
# Assays:
# Phospholipase D2 = Phospholipase D2 (Homo sapiens, UniProt O14939); experiment: PLD2 inhibitor potency in cells, dose response (AID 602147); type: functional;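 note: cellular assay in HEK293 cells overexpressing GFP-tagged PLD2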
# [1] = molecular target: Glycogen synthase kinase-3 beta (Homo sapiens, UniProt P49841); experiment: Inhibition of Human GSK-3 beta Activity Measured in Biochemical System Using Microfluidics - 2063-05_Inhibitor_Dose_DryPowder_Activity. [Related pubchem assays (depositor defined):AID2709]
# [2] = molecular target: Glycogen synthase kinase-3 alpha (Homo sapiens, UniProt P49840); experiment: Inhibition of Human GSK-3 alpha Activity Measured in Biochemical System Using Microfluidics - 2063-06_Inhibitor_Dose_DryPowder_Activity. [Related pubchem assays (depositor defined):AID2709]
# INS1 [3] = experiment: beta cell apoptosis inhibitors, cytokine rescue, dose response, luminescence, retest (AID 449756); type: functional, cell-based; conditions: Rattus norvegicus;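 note: cell death triggered by IL-1 beta plus TNF-alpha plus IFN-gamma mixture; protective hits raise ATP signal compared with cytokine alone wells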
# [4] = Luminescence Cell-Based Dose Retest to Confirm Inhibitors of Cancer Stem Cells. [Related pubchem assays (depositor defined):AID2717, AID2721]; type: functional; conditions: Homo sapiens
# [5] = cytotoxicity in HMLE control line with eGFP shRNA, dose response, counter-screen for HMLE_sh_ECad selective toxicity project, cell-based, HMLE_sh_eGFP, luminescence (AID 463074); type: functional, Homo sapiens;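 note: HMLE human mammary epithelial cells expressing control shRNA against eGFP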
# Escherichia coli [6] = experiment: microbe, parasite or virus in culture
# [7] = molecular target: T1, Calpain-2 catalytic subunit (Sus scrofa, UniProt P43367); experiment: pig calpain II inhibitor potency, dose response, biochemical, fluorogenic peptide substrate (AID 1420); type: functional
# T1 sequence (P43367 whole entry): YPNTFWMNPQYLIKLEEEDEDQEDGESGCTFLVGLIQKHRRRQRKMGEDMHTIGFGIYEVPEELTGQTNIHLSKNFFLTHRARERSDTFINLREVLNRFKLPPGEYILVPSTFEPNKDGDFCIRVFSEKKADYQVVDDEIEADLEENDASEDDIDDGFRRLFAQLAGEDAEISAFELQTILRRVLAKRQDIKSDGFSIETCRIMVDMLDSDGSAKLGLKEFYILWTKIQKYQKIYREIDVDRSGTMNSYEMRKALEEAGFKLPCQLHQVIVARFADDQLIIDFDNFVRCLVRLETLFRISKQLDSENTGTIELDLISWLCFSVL
# Escherichia coli [8] = experiment: microbe, parasite or virus in culture; remark: listed apart in the source
# [9] = molecular target: Photoreceptor-specific nuclear receptor (Homo sapiens, UniProt Q9Y5X4); type: functional, cell-based;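 note: CHO-S cells with Gal4-NCOR and VP16-NR2E3 two-hybrid luciferase reporter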
# [10] = Shn3 3'UTR reporter inhibitors, dose response, cell-based, Clone20 osteoblasts, firefly luciferase, cherry-picked (AID 624132); type: functional;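 note: firefly luciferase luminescence from reporter carrying the Shn3 3'UTR in osteoblasts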
# Jurkat = experiment: antigen receptor-induced NF-kB inhibitors, dose response, Jurkat, luciferase reporter, luminescence, B- and T-cell (AID 489004); type: functional, cell-based; conditions: Homo sapiens;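 note: NF-kB luciferase reporter Jurkat cells stimulated with PMA plus ionomycin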
# [11] = molecular target: T2, Microphthalmia-associated transcription factor (Homo sapiens, UniProt O75030); experiment: TRPM1 promoter luciferase signal decrease, dose response, MITF inhibitor project, cell-based, SK-MEL-5, cherry-picked, set 3 (AID 493073); type: functional
# T2 sequence (O75030 whole entry): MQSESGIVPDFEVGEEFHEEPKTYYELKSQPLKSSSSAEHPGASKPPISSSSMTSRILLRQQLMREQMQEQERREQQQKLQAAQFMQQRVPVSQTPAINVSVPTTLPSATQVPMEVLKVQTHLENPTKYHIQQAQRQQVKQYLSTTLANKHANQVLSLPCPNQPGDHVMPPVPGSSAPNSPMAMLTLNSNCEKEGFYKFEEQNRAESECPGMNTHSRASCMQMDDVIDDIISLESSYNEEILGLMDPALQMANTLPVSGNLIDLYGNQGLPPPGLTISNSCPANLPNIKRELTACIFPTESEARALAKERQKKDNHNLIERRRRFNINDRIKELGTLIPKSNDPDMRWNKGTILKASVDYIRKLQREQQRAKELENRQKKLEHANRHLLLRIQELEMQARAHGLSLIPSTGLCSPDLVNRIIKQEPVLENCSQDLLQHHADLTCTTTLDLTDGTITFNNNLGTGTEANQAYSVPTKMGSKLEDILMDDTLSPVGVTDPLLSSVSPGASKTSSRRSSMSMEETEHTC
# A-375 [12] = experiment: A375 melanoma cell viability reduction, dose response, counter-screen for MITF modulator project, cherry-pick samples, set 2 (AID 540335); type: functional, cell-based; conditions: Homo sapiens
# A-375 [13] = experiment: MITF: Counter assay: A375 proliferation Measured in Cell-Based System Using Plate Reader - 2084-03_Inhibitor_Dose_DryPowder_Activity. [Related pubchem assays (depositor defined):AID488944]; type: functional; conditions: Homo sapiens
# [14] = cytotoxicity in HEK-293T NF-kB-Luc cells, dose response, cytotoxicity control for B/T-cell NF-kB inhibitor project, cell-based, uHTS hits (AID 489019); type: functional;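 note: IC50 reflects cytotoxicity as loss of cell viability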
# [15] = control 3'UTR Renilla luciferase suppression, dose response, counter-screen for Shn3 inhibitor project, cell-based, Clone20-Shn3RL, cherry-picked (AID 624133); type: functional
# [16] = Late-stage probe development counterscreen for inhibitors of the Hepatitis C Virus non-structural protein 3 helicase (NS3): luminescence-based cell-based dose response assay to determine whether compounds that inhibit replication of HCV RNA replicon are cytotoxic. [Related pubchem assays (depositor defined):AID1800, AID1830, AID1845, AID1943, AID1945, AID2172, AID2173, AID2474, AID2476]; type: functional
# NS3 = NS3 (Hepatitis C virus, UniProt A3EZJ3); experiment: PubChem AID 2173; parameters: species or system Hepacivirus hominis
# Vero = Vero cell cytotoxicity, cytotoxicity control for flavivirus capping enzyme inhibitors (AID 588742); type: functional; conditions: Chlorocebus sabaeus
# [17] = molecular target: T3, Low molecular weight phosphotyrosine protein phosphatase (Homo sapiens, UniProt P24666); type: functional; conditions: read-out: IC50_Mean
# T3 sequence (P24666 whole entry): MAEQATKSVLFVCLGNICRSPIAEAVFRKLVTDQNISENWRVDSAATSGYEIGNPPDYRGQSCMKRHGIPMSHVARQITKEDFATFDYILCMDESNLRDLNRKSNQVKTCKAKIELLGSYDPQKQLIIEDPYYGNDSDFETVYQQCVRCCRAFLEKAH
# DNA topoisomerase = molecular target: T4, DNA topoisomerase (Yersinia pestis, UniProt A0A2S9PM60); experiment: Y. pestis Topo-I inhibitors, cleavage product readout, dose response, biochemical, cherry-pick (AID 588525)
# T4 sequence (A0A2S9PM60 whole entry): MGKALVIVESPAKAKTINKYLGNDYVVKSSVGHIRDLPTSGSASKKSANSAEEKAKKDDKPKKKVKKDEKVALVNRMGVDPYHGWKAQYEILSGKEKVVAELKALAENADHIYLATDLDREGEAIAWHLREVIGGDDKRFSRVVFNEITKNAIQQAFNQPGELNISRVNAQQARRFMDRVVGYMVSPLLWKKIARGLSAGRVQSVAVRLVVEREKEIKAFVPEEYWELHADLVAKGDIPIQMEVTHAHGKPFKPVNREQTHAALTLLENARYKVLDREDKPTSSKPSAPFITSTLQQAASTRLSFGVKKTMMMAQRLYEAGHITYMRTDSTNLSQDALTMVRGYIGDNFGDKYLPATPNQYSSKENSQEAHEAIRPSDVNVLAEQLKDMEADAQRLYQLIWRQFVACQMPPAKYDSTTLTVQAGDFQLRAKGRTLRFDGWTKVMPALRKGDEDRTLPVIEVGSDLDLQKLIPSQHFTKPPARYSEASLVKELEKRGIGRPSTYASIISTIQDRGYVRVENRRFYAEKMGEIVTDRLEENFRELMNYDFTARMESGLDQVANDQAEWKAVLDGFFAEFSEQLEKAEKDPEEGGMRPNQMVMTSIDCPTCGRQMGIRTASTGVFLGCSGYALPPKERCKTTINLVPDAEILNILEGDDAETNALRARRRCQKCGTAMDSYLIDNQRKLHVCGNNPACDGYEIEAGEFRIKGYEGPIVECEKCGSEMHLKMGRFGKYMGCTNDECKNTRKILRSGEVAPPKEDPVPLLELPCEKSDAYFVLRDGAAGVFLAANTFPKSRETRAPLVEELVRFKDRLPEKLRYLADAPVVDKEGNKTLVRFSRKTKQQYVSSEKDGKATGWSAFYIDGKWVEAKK
# Genome polyprotein = Genome polyprotein (dengue virus type 2, UniProt P29990); experiment: Dengue-2 NS5 methyltransferase inhibitors, primary screen, biochemical, confirmation dose response (AID 588689); type: functional
# [18] = molecular target: T3, Low molecular weight phosphotyrosine protein phosphatase; type: functional; conditions: read-out: IC50_Mean; remark: listed apart in the source
# Trypsin = Trypsin (Sus scrofa, UniProt P00761); experiment: porcine trypsin inhibitors, dose response, selectivity assay for Rce1 protease inhibitor project, biochemical, quenched peptide fluorescence, cherry-pick (AID 488789)
# CAAX prenyl protease 1 = CAAX prenyl protease 1 (Saccharomyces cerevisiae S288c, UniProt P47154); experiment: Ste24 protease inhibitors, dose response, biochemical, S. cerevisiae, plate reader, cherry-pick (AID 488815)
# CAAX prenyl protease 2 = molecular target: T5, CAAX prenyl protease 2 (Saccharomyces cerevisiae S288c, UniProt Q03530); type: biochemical
# T5 sequence (Q03530 whole entry): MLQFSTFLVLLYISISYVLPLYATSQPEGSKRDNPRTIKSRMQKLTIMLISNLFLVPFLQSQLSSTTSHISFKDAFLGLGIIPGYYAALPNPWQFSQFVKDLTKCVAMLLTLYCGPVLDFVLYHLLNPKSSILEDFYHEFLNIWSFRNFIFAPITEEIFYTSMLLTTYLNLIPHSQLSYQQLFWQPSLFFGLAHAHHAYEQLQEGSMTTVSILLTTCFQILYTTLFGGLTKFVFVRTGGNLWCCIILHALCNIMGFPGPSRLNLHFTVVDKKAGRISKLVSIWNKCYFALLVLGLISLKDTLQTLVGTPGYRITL
# INS1 [19] = experiment: protection of INS-1E cells from cytokine death, dose response, ATP luminescence, dry powder (AID 488844); type: functional, cell-based; conditions: Rattus norvegicus
# [20] = inhibitors of Trypanosoma cruzi host-cell infection, confirmation, beta-gal luminescence, NIH3T3 host cells (AID 2630); type: functional, cell-based; conditions: Mus musculus
# [21] = Luminescence Cell-Based Secondary HTS screen to identify cytotoxic compounds of NIH3T3 cells. [Related pubchem assays: 1885, 1968 ]; type: functional
# [22] = Luminescence Cell-Based/Microorganism Confirmation at Dose of Inhibitors of Trypanosoma cruzi Infection. [Related pubchem assays: 1885, 1968 ]; type: functional
# [23] = inhibitors of intracellular T. cruzi replication, confirmation, NIH3T3 host cells, beta-gal luminescence (AID 2044); type: functional, cell-based;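 note: intracellular parasites grown in NIH/3T3 mouse fibroblasts as host cells; luminescent beta-galactosidase reporter signal from transgenic T. cruzi replicating inside host cells; inhibitors lower the luminescence signal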
# [24] = cytotoxicity toward NIH3T3 fibroblasts, dose response, counter-screen, cell-based, ATP luminescence, mouse fibroblasts (AID 2010); type: functional;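 note: cells exposed to compound for about 90 hours before reading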
# Cytochrome P450 1A2 = molecular target: T6, Cytochrome P450 1A2 (Homo sapiens, UniProt P05177);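 note: PubChem cytochrome P450 panel assay, CYP1A2 panel member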
# T6 sequence (P05177 whole entry): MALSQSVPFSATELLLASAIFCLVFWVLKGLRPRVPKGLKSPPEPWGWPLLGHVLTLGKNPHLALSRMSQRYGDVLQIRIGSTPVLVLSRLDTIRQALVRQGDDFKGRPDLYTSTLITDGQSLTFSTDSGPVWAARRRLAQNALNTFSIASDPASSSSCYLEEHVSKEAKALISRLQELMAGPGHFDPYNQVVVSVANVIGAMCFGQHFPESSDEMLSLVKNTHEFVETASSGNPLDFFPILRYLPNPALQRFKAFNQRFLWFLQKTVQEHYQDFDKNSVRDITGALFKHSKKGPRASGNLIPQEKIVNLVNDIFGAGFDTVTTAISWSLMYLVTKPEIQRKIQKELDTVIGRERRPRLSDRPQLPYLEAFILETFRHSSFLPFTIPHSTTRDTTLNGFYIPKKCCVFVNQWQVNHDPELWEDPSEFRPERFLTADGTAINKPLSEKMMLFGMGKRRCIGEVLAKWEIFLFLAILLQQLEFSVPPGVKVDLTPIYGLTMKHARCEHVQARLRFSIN
# Cytochrome P450 2C9 = Cytochrome P450 2C9 (Homo sapiens, UniProt P11712)
# Sequence of Cytochrome P450 2C9 (P11712 whole entry): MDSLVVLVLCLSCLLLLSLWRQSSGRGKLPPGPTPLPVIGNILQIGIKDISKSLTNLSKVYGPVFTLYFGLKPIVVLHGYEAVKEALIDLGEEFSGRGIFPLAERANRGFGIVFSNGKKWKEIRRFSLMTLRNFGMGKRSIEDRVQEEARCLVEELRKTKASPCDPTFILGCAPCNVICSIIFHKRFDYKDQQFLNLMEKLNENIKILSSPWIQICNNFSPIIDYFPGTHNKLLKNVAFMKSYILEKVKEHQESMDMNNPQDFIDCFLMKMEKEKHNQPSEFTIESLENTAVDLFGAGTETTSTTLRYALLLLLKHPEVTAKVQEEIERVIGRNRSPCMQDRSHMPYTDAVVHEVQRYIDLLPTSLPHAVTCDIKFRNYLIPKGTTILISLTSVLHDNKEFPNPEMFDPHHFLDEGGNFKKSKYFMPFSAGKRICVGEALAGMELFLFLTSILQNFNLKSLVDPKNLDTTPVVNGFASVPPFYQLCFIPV
# Sequence of Genome polyprotein (P29990 2492-3391 limits assumed): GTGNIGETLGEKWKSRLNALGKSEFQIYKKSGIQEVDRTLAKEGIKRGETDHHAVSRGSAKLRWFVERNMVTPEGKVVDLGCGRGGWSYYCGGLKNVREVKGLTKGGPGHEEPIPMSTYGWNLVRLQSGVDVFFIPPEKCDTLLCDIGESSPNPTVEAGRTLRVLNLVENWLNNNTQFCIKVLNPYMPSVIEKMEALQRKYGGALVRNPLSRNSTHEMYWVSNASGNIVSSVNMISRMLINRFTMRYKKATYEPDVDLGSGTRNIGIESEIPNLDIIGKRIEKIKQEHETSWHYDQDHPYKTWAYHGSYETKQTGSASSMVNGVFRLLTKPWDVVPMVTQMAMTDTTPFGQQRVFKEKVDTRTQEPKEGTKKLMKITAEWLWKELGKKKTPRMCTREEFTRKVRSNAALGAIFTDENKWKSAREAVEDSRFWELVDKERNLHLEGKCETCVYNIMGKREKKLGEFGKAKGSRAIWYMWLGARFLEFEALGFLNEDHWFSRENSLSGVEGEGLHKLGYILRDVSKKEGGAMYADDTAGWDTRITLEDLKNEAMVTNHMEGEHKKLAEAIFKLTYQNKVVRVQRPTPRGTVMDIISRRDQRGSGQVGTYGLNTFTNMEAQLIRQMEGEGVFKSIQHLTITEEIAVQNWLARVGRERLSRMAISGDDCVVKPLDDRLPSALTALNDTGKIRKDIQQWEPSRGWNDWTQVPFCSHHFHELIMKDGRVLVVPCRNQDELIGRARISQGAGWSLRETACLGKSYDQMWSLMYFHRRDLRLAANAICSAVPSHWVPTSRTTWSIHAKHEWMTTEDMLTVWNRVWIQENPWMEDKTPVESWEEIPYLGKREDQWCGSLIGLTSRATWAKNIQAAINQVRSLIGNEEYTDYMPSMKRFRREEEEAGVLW
# Sequence of Photoreceptor-specific nuclear receptor (Q9Y5X4 whole entry, the tested form may be a part): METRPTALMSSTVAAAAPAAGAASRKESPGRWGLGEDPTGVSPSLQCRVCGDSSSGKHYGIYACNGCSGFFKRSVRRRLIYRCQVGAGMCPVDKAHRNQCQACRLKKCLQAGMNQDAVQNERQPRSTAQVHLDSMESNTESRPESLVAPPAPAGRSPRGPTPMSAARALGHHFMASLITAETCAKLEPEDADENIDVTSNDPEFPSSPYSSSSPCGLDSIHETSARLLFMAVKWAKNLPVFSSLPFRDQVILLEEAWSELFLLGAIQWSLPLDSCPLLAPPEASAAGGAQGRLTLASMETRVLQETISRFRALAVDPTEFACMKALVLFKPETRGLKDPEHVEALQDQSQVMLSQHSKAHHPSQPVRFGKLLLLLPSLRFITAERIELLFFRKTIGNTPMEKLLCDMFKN
# Sequence of Glycogen synthase kinase-3 alpha (P49840 whole entry): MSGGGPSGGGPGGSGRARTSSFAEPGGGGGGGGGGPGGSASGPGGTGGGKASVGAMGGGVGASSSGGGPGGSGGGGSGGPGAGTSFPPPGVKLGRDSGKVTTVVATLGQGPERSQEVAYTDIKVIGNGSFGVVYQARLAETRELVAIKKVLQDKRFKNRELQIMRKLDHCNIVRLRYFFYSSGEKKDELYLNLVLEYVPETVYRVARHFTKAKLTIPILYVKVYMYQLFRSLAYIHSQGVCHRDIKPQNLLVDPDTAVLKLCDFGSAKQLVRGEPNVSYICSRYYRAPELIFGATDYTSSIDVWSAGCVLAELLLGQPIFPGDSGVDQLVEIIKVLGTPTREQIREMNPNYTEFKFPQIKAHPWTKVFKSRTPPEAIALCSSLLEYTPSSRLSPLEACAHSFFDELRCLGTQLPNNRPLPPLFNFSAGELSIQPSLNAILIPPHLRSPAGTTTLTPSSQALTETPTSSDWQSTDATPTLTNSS
# Sequence of Trypsin (P00761 whole entry): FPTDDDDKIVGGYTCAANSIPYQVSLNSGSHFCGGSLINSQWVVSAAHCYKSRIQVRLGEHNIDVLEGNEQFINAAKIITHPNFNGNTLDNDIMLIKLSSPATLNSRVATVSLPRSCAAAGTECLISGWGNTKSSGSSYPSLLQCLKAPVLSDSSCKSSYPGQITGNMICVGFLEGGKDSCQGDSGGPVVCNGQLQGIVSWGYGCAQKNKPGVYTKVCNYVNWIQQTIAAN
# Sequence of CAAX prenyl protease 1 (P47154 whole entry): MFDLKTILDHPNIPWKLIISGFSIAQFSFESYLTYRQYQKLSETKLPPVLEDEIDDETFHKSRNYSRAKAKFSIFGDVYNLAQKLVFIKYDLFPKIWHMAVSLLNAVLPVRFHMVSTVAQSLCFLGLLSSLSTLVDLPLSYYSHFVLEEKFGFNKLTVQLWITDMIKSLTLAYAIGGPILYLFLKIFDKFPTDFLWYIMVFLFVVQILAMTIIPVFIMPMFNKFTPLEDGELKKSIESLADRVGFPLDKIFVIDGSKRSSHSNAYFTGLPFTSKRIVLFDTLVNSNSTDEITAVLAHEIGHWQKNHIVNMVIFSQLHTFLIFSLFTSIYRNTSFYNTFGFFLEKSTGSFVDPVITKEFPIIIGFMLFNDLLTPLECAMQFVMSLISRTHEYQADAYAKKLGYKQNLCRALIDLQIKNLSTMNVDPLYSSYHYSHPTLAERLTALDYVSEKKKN
# Sequence of NS3 (A3EZJ3 whole entry): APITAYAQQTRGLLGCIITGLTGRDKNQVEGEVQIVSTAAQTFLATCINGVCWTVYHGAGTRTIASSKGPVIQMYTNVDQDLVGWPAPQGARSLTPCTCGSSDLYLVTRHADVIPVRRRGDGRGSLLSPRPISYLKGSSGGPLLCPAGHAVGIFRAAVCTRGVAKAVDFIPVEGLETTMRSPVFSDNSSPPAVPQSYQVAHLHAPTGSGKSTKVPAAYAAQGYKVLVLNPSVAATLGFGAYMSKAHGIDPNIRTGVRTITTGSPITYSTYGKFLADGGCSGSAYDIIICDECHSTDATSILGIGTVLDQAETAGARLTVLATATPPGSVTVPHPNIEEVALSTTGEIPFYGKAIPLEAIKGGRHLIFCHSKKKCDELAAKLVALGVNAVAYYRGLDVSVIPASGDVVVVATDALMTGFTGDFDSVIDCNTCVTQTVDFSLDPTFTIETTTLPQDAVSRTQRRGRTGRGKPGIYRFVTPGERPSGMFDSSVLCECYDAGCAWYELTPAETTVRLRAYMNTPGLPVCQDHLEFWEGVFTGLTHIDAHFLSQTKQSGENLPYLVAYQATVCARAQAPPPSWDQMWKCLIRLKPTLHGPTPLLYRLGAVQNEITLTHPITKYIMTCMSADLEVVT
# Sequence of Glycogen synthase kinase-3 beta (P49841 whole entry): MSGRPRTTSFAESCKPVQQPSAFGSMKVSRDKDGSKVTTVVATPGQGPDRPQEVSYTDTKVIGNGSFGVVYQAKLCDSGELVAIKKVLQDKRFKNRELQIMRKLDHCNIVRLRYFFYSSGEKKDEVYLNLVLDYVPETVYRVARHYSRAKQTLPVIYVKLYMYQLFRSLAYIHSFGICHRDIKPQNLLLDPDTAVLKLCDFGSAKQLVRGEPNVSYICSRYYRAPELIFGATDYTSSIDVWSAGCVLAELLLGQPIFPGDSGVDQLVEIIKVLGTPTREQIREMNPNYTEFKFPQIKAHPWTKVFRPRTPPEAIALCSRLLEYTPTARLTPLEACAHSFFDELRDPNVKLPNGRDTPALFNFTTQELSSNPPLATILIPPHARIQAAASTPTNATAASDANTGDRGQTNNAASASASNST
# Sequence of Phospholipase D2 (O14939 whole entry): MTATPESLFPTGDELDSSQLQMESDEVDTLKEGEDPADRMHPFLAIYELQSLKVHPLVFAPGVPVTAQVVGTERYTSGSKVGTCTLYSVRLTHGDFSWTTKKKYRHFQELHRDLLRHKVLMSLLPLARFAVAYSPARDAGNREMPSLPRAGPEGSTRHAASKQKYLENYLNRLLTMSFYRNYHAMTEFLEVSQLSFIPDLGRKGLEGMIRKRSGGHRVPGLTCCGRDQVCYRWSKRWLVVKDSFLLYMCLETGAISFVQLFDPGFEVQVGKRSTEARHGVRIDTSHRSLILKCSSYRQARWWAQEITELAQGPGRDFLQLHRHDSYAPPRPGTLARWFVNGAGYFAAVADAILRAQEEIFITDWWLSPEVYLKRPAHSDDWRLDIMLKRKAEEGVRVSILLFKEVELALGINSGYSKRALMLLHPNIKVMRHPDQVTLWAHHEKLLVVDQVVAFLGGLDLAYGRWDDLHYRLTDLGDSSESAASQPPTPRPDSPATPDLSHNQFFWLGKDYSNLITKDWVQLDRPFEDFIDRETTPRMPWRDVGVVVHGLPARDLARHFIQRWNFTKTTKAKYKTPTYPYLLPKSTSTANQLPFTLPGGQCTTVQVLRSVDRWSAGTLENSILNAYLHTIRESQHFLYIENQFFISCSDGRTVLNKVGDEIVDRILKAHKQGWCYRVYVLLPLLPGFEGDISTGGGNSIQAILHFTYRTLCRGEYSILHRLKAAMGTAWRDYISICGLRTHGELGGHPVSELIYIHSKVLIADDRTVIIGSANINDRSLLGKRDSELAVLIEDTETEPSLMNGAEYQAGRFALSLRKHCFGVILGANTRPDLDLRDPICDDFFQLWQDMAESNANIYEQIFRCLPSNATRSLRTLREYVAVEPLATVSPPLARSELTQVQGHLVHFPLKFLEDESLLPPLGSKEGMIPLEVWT
compound,measurement,setting,value
O=C(NCCN1CCC2(CC1)C(=O)NCN2c1ccc(F)c(F)c1)c1cc2cc(F)ccc2[nH]1,IC50,Phospholipase D2,0.097 µM (active)
COC(=O)c1ccc(CSc2ccc3nnc(-c4ccc(OC)cc4)n3n2)o1,AC50,[1],1.94 µM (active)
same,AC50,[2],6.84 µM (active)
c1ccc(N2CCN(CC3CCCCC3)CC2)cc1,AC50,INS1 [3],91.4 µM (active)
same,AC50,[4],25.3 µM (active)
same,AC50,[5],95.2 µM (active)
O=C(CCC(=O)OCc1cccc(C(=O)Oc2ccccc2)c1)Nc1cccc2ccccc12,AC50,Escherichia coli [6],212 µM (active)
same,IC50,[7],< 0.4 µM (not active)
same,AC50,Escherichia coli [8],23.5 µM (active)
C=CCn1c(C)cc(C(=O)CN2C(=O)c3ccccc3S2(=O)=O)c1C,IC50,[9],2.46 µM (active)
same,AC50,[10],0.974 µM (active)
same,IC50,Jurkat,1.17 µM (active)
same,AC50,[11],0.666 µM (active)
same,AC50,A-375 [12],> 35 µM (active)
same,AC50,A-375 [13],> 35 µM (active)
same,IC50,[14],> 80 µM (inactive)
same,AC50,[15],23.2 µM (active)
CCCCCOc1ccc(C2C(C(=O)c3ccc(C)o3)=C(O)C(=O)N2c2cc(C)on2)cc1 (stereo not given),CC50,[16],> 100 µM (inactive)
same,IC50,NS3,2.44 µM (active)
same,CC50,Vero,> 40 µM (active)
same,IC50,[17],> 80 µM (inactive)
same,AC50,DNA topoisomerase,6.14 µM (active)
same,IC50,Genome polyprotein,31.6 µM (active)
same,IC50,[18],2.21 µM (active)
CCOc1ccc(C2C(C(=O)OC)=CN(C(C)c3ccccc3)C=C2C(=O)OC)cc1 (stereo not given),AC50,Trypsin,5.7 µM (active)
same,AC50,CAAX prenyl protease 1,5.08 µM (active)
same,AC50,CAAX prenyl protease 2,> 100 µM (inactive)
COc1ccc(S(=O)(=O)N(C)C[C@@H]2Oc3c(NS(=O)(=O)c4ccc(C)cc4)cccc3C(=O)N([C@@H](C)CO)C[C@H]2C)cc1,AC50,INS1 [19],> 235 µM (inactive)
CCOc1ccc2oc(=O)cc(CN3CCN(Cc4ccccc4)CC3)c2c1,EC50,[20],0.903 µM (active)
same,EC50,[21],> 195 µM (inconclusive)
same,EC50,[22],0.903 µM (inconclusive)
same,EC50,[23],0.216 µM (active)
same,EC50,[24],> 30 µM (not active)
COc1cc(OC)c(C(=O)CCCN2CCCC2)c(OC)c1 [BUFLOMEDIL],AC50,Cytochrome P450 1A2,inactive
same,AC50,Cytochrome P450 2C9,inactive

# Source: ChEMBL document CHEMBL1201862, “PubChem BioAssay data set” (2004)
